The record followed here is ChEMBL document CHEMBL1132382 (J Med Chem, 1999).

For data set [1] the following is noted: octanol/water.
Description: Partition coefficient (logD) (chloroform/buffer)
In data set [2] the target is Carbonic anhydrase 1 (Homo sapiens, UniProt P00915).
Description: Inhibitory activity against human recombinant carbonic anhydrase I (CA1)
The species entered for data set [3] is Oryctolagus cuniculus. In words: The compound was evaluated for fall in intraocular pressure (IOP) of Glaucomatous rabbits after treatment with one drop (50 microL) of a 2% solution at 30 min (pH 6.0). The data set is classed as functional, Eye.
Data set [4] is filed under the species Oryctolagus cuniculus. In words: The compound was evaluated for fall in intraocular pressure (IOP) of Normotensive rabbits after treatment with one drop (50 microL) of a 2% solution at 0 min (pH 5.5). The data set is classed as functional, Eye.
The species named for data set [5] is Oryctolagus cuniculus. Kind of data set: The compound was evaluated for fall in intraocular pressure (IOP) of Glaucomatous rabbits after treatment with one drop (50 microL) of a 2% solution at 90 min (pH 6.0). The data set is classed as functional, Eye.
For data set [6], the species on record is Oryctolagus cuniculus. Kind of data set: The compound was evaluated for fall in intraocular pressure (IOP) of Normotensive rabbits after treatment with one drop (50 microL) of a 2% solution at 60 min (pH 5.5). It counts as functional, Eye.
Data set [7] in a line: physchem. The conditions noted are these: buffer, pH 7.4.
The target in data set [8] is T1, Carbonic anhydrase 4 (Bos taurus, UniProt Q95323).
T1 sequence (Q95323 whole entry): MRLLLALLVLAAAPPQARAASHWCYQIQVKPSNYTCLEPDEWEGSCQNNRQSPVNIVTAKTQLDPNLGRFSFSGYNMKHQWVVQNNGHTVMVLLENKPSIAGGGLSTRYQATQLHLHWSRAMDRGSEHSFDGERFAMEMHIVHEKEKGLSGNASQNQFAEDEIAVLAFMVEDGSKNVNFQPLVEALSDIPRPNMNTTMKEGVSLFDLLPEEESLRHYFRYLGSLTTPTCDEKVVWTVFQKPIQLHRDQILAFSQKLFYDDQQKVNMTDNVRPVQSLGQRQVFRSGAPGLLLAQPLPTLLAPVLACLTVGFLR
Description: Inhibitory activity against bovine carbonic anhydrase IV (CA4), isolated from bovine lung microsomes

The species named for data set [9] is Oryctolagus cuniculus. In words: The compound was evaluated for fall in intraocular pressure (IOP) of Glaucomatous rabbits after treatment with one drop (50 microL) of a 2% solution at 0 min (pH 6.0). The data set is classed as functional, Eye.
The species entered for data set [10] is Oryctolagus cuniculus. In words: The compound was evaluated for fall in intraocular pressure (IOP) of Glaucomatous rabbits after treatment with one drop (50 microL) of a 2% solution at 60 min (pH 6.0). It counts as functional, Eye.
Test in data set [11]: not given
This is another data set of the same source.

Data set [12] is filed under the species Oryctolagus cuniculus. In words: The compound was evaluated for fall in intraocular pressure (IOP) of Normotensive rabbits after treatment with one drop (50 microL) of a 2% solution at 30 min (pH 5.5). It counts as functional, Eye.
For data set [13], the species on record is Oryctolagus cuniculus. In words: The compound was evaluated for fall in intraocular pressure (IOP) of Normotensive rabbits after treatment with one drop (50 microL) of a 2% solution at 90 min (pH 5.5). It counts as functional, Eye.
For data set [14], the species on record is Oryctolagus cuniculus. In words: The compound was evaluated for fall in intraocular pressure (IOP) of Normotensive rabbits after treatment with one drop (50 microL) of a 2% solution at 30 min (pH 7.5). It counts as functional, Eye.
For data set [15], the species on record is Oryctolagus cuniculus. In words: The compound was evaluated for fall in intraocular pressure (IOP) of Normotensive rabbits after treatment with one drop (50 microL) of a 2% solution at 60 min (pH 7.5). It counts as functional, Eye.
The species entered for data set [16] is Oryctolagus cuniculus. In words: The compound was evaluated for fall in intraocular pressure (IOP) of glaucomatous rabbits after treatment with one drop (50 microL) of a 2% solution at 30 min (pH 7.5). The data set is classed as functional, Eye.
Data set [17] is filed under the species Oryctolagus cuniculus. Kind of data set: The compound was evaluated for fall in intraocular pressure (IOP) of glaucomatous rabbits after treatment with one drop (50 microL) of a 2% solution at 60 min (pH 7.5). The data set is classed as functional, Eye.
The species entered for data set [18] is Oryctolagus cuniculus. Kind of data set: The compound was evaluated for fall in intraocular pressure (IOP) of glaucomatous rabbits after treatment with one drop (50 microL) of a 2% solution at 90 min (pH 7.5). It counts as functional, Eye.
The species named for data set [19] is Oryctolagus cuniculus. Kind of data set: The compound was evaluated for fall in intraocular pressure (IOP) of Normotensive rabbits after treatment with one drop (50 microL) of a 2% solution at 0 min (pH 7.5). It counts as functional, Eye.
The species named for data set [20] is Oryctolagus cuniculus. In words: The compound was evaluated for fall in intraocular pressure (IOP) of Glaucomatous rabbits after treatment with one drop (50 microL) of a 2% solution at 0 min (pH 6.5). It counts as functional, Eye.
For data set [21], the species on record is Oryctolagus cuniculus. Kind of data set: The compound was evaluated for fall in intraocular pressure (IOP) of Glaucomatous rabbits after treatment with one drop (50 microL) of a 2% solution at 60 min (pH 6.5). It counts as functional, Eye.
The species named for data set [22] is Oryctolagus cuniculus. Kind of data set: The compound was evaluated for fall in intraocular pressure (IOP) of Glaucomatous rabbits after treatment with one drop (50 microL) of a 2% solution at 90 min (pH 6.5). The data set is classed as functional, Eye.
The species entered for data set [23] is Oryctolagus cuniculus. Kind of data set: The compound was evaluated for fall in intraocular pressure (IOP) of Glaucomatous rabbits after treatment with one drop (50 microL) of a 2% solution at 30 min (pH 6.5). It counts as functional, Eye.
Data set [24] is filed under the species Oryctolagus cuniculus. Kind of data set: The compound was evaluated for fall in intraocular pressure (IOP) of Normotensive rabbits after treatment with one drop (50 microL) of a 2% solution at 30 min (pH 6.5). It counts as functional, Eye.
The species named for data set [25] is Oryctolagus cuniculus. In words: The compound was evaluated for fall in intraocular pressure (IOP) of Normotensive rabbits after treatment with one drop (50 microL) of a 2% solution at 60 min (pH 6.5). It counts as functional, Eye.
The species named for data set [26] is Oryctolagus cuniculus. Kind of data set: The compound was evaluated for fall in intraocular pressure (IOP) of Normotensive rabbits after treatment with one drop (50 microL) of a 2% solution at 0 min (pH 6.5). The data set is classed as functional, Eye.
The species named for data set [27] is Oryctolagus cuniculus. Kind of data set: The compound was evaluated for fall in intraocular pressure (IOP) of Normotensive rabbits after treatment with one drop (50 microL) of a 2% solution at 90 min (pH 6.5). It counts as functional, Eye.
For data set [28], the species on record is Oryctolagus cuniculus. In words: The compound was evaluated for fall in intraocular pressure (IOP) of Normotensive rabbits after treatment with one drop (50 microL) of a 2% solution at 90 min (pH 7.0). It counts as functional, Eye.
The species named for data set [29] is Oryctolagus cuniculus. Kind of data set: The compound was evaluated for fall in intraocular pressure (IOP) of Normotensive rabbits after treatment with one drop (50 microL) of a 2% solution at 30 min (pH 7.0). The data set is classed as functional, Eye.
Data set [30] is filed under the species Oryctolagus cuniculus. In words: The compound was evaluated for fall in intraocular pressure (IOP) of Normotensive rabbits after treatment with one drop (50 microL) of a 2% solution at 0 min (pH 7.0). The data set is classed as functional, Eye.
For data set [31], the species on record is Oryctolagus cuniculus. Kind of data set: The compound was evaluated for fall in intraocular pressure (IOP) of Normotensive rabbits after treatment with one drop (50 microL) of a 2% solution at 60 min (pH 7.0). The data set is classed as functional, Eye.
For data set [32], the species on record is Oryctolagus cuniculus. Kind of data set: The compound was evaluated for fall in intraocular pressure (IOP) of Glaucomatous rabbits after treatment with one drop (50 microL) of a 2% solution at 90 min (pH 7.5). It counts as functional, Eye.
Data set [33] is filed under the species Oryctolagus cuniculus. In words: The compound was evaluated for fall in intraocular pressure (IOP) of Normotensive rabbits after treatment with one drop (50 microL) of a 2% solution at 90 min (pH 7.5). The data set is classed as functional, Eye.
For data set [34], the species on record is Oryctolagus cuniculus. Kind of data set: The compound was evaluated for fall in intraocular pressure (IOP) of Glaucomatous rabbits after treatment with one drop (50 microL) of a 2% solution at 30 min (pH 7.5). It counts as functional, Eye.
The species named for data set [35] is Oryctolagus cuniculus. Kind of data set: The compound was evaluated for fall in intraocular pressure (IOP) of Glaucomatous rabbits after treatment with one drop (50 microL) of a 2% solution at 60 min (pH 7.5). The data set is classed as functional, Eye.
The species named for data set [36] is Oryctolagus cuniculus. Kind of data set: The compound was evaluated for fall in intraocular pressure (IOP) of Glaucomatous rabbits after treatment with one drop (50 microL) of a 2% solution at 0 min (pH 7.5). It counts as functional, Eye.

In brackets after ≈: the same amount, converted by molar mass.

Sequence of Carbonic anhydrase 1 (P00915 whole entry): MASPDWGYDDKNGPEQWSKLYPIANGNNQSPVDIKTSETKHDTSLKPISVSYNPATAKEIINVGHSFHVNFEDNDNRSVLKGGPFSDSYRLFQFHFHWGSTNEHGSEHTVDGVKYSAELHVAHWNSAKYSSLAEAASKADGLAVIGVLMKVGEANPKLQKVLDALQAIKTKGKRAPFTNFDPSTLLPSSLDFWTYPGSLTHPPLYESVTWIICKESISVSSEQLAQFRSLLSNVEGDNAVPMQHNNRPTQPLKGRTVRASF

In turn, `NCC(=O)Nc1ccc(S(=O)(=O)Nc2nnc(S(N)(=O)=O)s2)cc1` yielded a kin of 5.4 h⁻¹. The logD (in general, lipophilicity at a set pH, counting ionised and neutral species) in data set [1] was 0.043. For the same molecule, in data set [2], the Ki (in general, a dissociation constant, usually derived from enzyme kinetics or from competition with a known ligand) stood at 14 nM. In data set [3], the “Change in IOP” value is listed as 7.9 mmHg. Moreover, the “Change in IOP” value in data set [4] turned out to be 0 mmHg. For the same molecule, in data set [5], the “Change in IOP” value is given as 14 mmHg. Moreover, in [6], the “Change in IOP” value is listed as 9.5 mmHg. Besides, in data set [7], the solubility (usually the dissolved amount per volume that the medium holds) was 65 mM (≈ 25.5 mg/mL). Also, the inhibitory constant (Ki) in [8] stood at 9 nM. Further, the “Change in IOP” value in data set [9] is given as 0 mmHg. In addition, the “Change in IOP” value in data set [10] worked out at 12.5 mmHg. Besides, the kin in [11] was determined as 3.1 h⁻¹. For the same molecule, in data set [12], the “Change in IOP” value is reported as 5.9 mmHg. For the same molecule, in [13], the “Change in IOP” value is listed as 9 mmHg.
As to `CN(CC(=O)NCCC(=O)Nc1nnc(S(N)(=O)=O)s1)C(=N)N`, the kin stood at 8.5 h⁻¹. In [1], the logD was 1.944. The affinity in data set [2] corresponds to a Ki of 21 nM. The “Change in IOP” value in data set [14] amounted to 10.7 mmHg. The “Change in IOP” value in [15] is 9.8 mmHg. For the same molecule, the “Change in IOP” value in data set [16] amounted to 8.6 mmHg. The “Change in IOP” value in data set [17] is listed as 14.2 mmHg. Moreover, the concentration in solution in data set [7] (solubility) was 75 mM (≈ 27.3 mg/mL). In [18], the “Change in IOP” value turned out to be 14.3 mmHg. This molecule also gave a Ki in data set [8] of 8 nM. Further, in data set [11], the kin turned out to be 4.7 h⁻¹. Further, in data set [19], the “Change in IOP” value is given as 6.6 mmHg.
Take `CN(CC(=O)Nc1nnc(S(N)(=O)=O)s1)C(=N)N`: the Ki stood at 170 nM in [2] and 35 nM in data set [8]. Besides, the “Change in IOP” value in data set [20] is 0 mmHg; in [21], 13.4 mmHg; in data set [22], 14.5 mmHg; in data set [23], 8.5 mmHg; in data set [24], 6.5 mmHg; in data set [25], 10.1 mmHg. The “Change in IOP” value turned out to be 0 mmHg in data set [26] and 9.1 mmHg in [27].
For `CN(CC(=O)/N=c1/sc(S(N)(=O)=O)nn1C)C(=N)N`, the Ki in data set [2] turned out to be 190 nM; in data set [8], 41 nM. The “Change in IOP” value in data set [28] was 9 mmHg; in data set [29], 5.5 mmHg; in [30], 0 mmHg; in data set [31], 9.2 mmHg.
In the case of `NCC(=O)NCC(=O)Nc1ccc(S(=O)(=O)Nc2nnc(S(N)(=O)=O)s2)cc1`, the kin was found to be 5 h⁻¹. Also, the logD in data set [1] came to 0.754. Also, in data set [2], the Ki was determined as 13 nM. In addition, the “Change in IOP” value in [14] worked out at 5.9 mmHg. Also, the “Change in IOP” value in [32] was found to be 13.1 mmHg. Also, the “Change in IOP” value in data set [15] is listed as 8.8 mmHg. The “Change in IOP” value in [33] turned out to be 9.1 mmHg. The molecule further yielded a solubility in data set [7] of 51 mM (≈ 22.9 mg/mL). The Ki in data set [8] came out at 6 nM. Besides, the “Change in IOP” value in data set [34] is recorded as 7 mmHg. This molecule also gave a kin in data set [11] of 2 h⁻¹. The “Change in IOP” value in data set [19] turned out to be 0 mmHg. Moreover, the “Change in IOP” value in [35] is recorded as 11.8 mmHg. Further, the “Change in IOP” value in data set [36] came out at 0 mmHg.
